# Entries after “also recorded” stand apart in the source; their conditions may differ.
# Test system: septic shock patients
# Assay: Phase IIa clinical trial with nangibotide in septic shock patients: mortality
# Type: in vivo, human
# Settings: for Sepsis-related mortality at 5 days, % / Sepsis-related mortality at 5 days, number of death / Sepsis-related mortality at 28 days, % / Sepsis-related mortality at 28 days, number of death / Sepsis-related mortality at 90 days, % / Sepsis-related mortality at 90 days, number of death: subgroup sTREM-1 at baseline above the median (433pg/mL); for All-cause mortality at 90 days, number of death / All-cause mortality at 5 days, % / All-cause mortality at 5 days, number of death / All-cause mortality at 28 days, % / All-cause mortality at 28 days, number of death / All-cause mortality at 90 days, %: whole population
# Experimental: This was a randomized, double-blind, two-stage, placebo-controlled study. As described in FIG. 7, the study was composed of 2 stages with a similar treatment regimen, in which 0.3, 1.0 or 3.0 mg/kg/h of nangibotide (corresponding to peptide LR12, having an amino acid sequence as set forth in SEQ ID NO: 9, also known as motrem) was tested versus placebo. All patients with a diagnosis of septic shock were considered for study participation. All potential study patients underwent standard care management procedures. Patients with evidence of septic shock according to the Sepsis-3 definition (Singer et al, JAMA 2016) were considered for inclusion (i.e., patients suffering from sepsis and having (i) persisting hypotension requiring vasopressors to maintain their mean arterial pressure ≥65 mm Hg and (ii) a serum lactate level >2 mmol/L (18 mg/dL) despite adequate volume resuscitation).
# After screening for eligibility, patients were randomized to one of the treatment arms. Then, they received either a 5 mg/kg loading dose of nangibotide over 15 minutes followed by a continuous intravenous (i.v.) infusion of nangibotide or a matching placebo on top of standard of care. Treatment with study drug was initiated as early as possible, but no later than 24 hours after the onset of septic shock, defined by the start of vasopressor therapy. Patients were treated until 12 (±2) hours after the resolution of their septic shock (defined as vasopressor withdrawal) with a maximum treatment duration of 5 days (120 hours).
# Adverse events (AEs) were coded using the MedDRA dictionary version 18.1. Treatment-emergent adverse events (TEAEs) were summarized and listed. Analysis was performed in 49 septic shock patients. The demographic and baseline characteristics were summarized in a descriptive fashion within each population: categorical variables were summarized by contingency tables (frequencies and percentages). sTREM-1 levels at day 1 were also described (mean, standard deviation, standard error, median, quartiles and range, minimum and maximum values). Mortality rates were reported by frequency and percentage. For continuous endpoints, i.e., the sequential organ failure assessment (SOFA), missing data were imputed using LOCF (Last Observation Carry-Forward). For time-to-event analyses, i.e., duration of invasive mechanical ventilation (IMV), duration of continuous renal replacement therapy (CRRT), survival, censored data techniques were utilized. In addition, a sensitivity analysis of time to event data (except survival) was performed using censoring at maximum limit for the corresponding observation period (i.e., either day 28 or day 90). […] The following comparisons were made: each nangibotide dose arm to placebo, all nangibotide doses combined versus placebo, and dose-response using an ordinal trend test. Exploratory composite endpoint: incidence (number and proportion) of patients alive at day 28 and free of vasopressor, free of IMV and free of CRRT were summarized by treatment and compared between treatments with a Fisher's exact test. For pharmacodynamic markers, log transformed data were represented as percentage change from baseline at day 5 or End of Infusion (EOI) if end of infusion was stopped before day 5. […] “All nangibotide” refers to analyses obtained by pooling data from 0.3, 1 and 3 mg/kg/h nangibotide-treated groups.
# [1] = 0.3 mg/kg/h (N = 6), 1st dose column
# [2] = 0.3 mg/kg/h (N = 6), 2nd dose column
# [3] = 0.3 mg/kg/h (N = 8), 3rd dose column
# [4] = 0.3 mg/kg/h (N = 12), 3rd dose column
# [5] = 0.3 mg/kg/h (N = 13), 1st dose column
# [6] = 1.0 mg/kg/h (N = 12), 2nd dose column
# [7] = pooled (N = 37), listed as nangibotide
substance,measurement,setting,value
nangibotide (LQEEDAGEYGCM; TLT-1 peptide),mortality vs. placebo,"nangibotide group, whole study",consistent trend in the proportion of death patients in favor of nangibotide-treated groups; also recorded: non-significant lower mortality
same,"Sepsis-related mortality at 5 days, %",[1],17%
same,"Sepsis-related mortality at 5 days, number of death",[1],1
same,"Sepsis-related mortality at 28 days, %",[1],17%
same,"Sepsis-related mortality at 28 days, number of death",[1],1
same,"Sepsis-related mortality at 90 days, %",[1],17%
same,"Sepsis-related mortality at 90 days, number of death",[1],1
same,"Sepsis-related mortality at 5 days, %",[2],17%
same,"Sepsis-related mortality at 5 days, number of death",[2],1
same,"Sepsis-related mortality at 28 days, %",[2],17%
same,"Sepsis-related mortality at 28 days, number of death",[2],1
same,"Sepsis-related mortality at 90 days, %",[2],17%
same,"Sepsis-related mortality at 90 days, number of death",[2],1
same,"Sepsis-related mortality at 5 days, number of death",[3],2
same,"Sepsis-related mortality at 28 days, number of death",[3],2
same,"Sepsis-related mortality at 90 days, number of death",[3],2
same,"Sepsis-related mortality at 5 days, %",pooled (N = 20),20%
same,"Sepsis-related mortality at 5 days, number of death",pooled (N = 20),4
same,"Sepsis-related mortality at 28 days, %",pooled (N = 20),20%
same,"Sepsis-related mortality at 28 days, number of death",pooled (N = 20),4
same,"Sepsis-related mortality at 90 days, %",pooled (N = 20),20%
same,"Sepsis-related mortality at 90 days, number of death",pooled (N = 20),4
same,"All-cause mortality at 90 days, number of death","0.3 mg/kg/h (N = 12), 2nd dose column",2
same,"All-cause mortality at 5 days, %",[4],17%
same,"All-cause mortality at 5 days, number of death",[4],2
same,"All-cause mortality at 28 days, %",[4],25%
same,"All-cause mortality at 28 days, number of death",[4],3
same,"All-cause mortality at 90 days, %",[4],33%
same,"All-cause mortality at 90 days, number of death",[4],4
same,"All-cause mortality at 5 days, %",[5],7.7%
same,"All-cause mortality at 5 days, number of death",[5],1
same,"All-cause mortality at 28 days, %",[5],15%
same,"All-cause mortality at 28 days, number of death",[5],2
same,"All-cause mortality at 90 days, %",[5],32%
same,"All-cause mortality at 90 days, number of death",[5],4
same,"All-cause mortality at 5 days, %",[6],8.3%
same,"All-cause mortality at 5 days, number of death",[6],1
same,"All-cause mortality at 28 days, %",[6],8.3%
same,"All-cause mortality at 28 days, number of death",[6],1
same,"All-cause mortality at 90 days, %",[6],17%
same,"All-cause mortality at 5 days, %",pooled (N = 37),11%
same,"All-cause mortality at 5 days, number of death",pooled (N = 37),4
same,"All-cause mortality at 28 days, %",pooled (N = 37),16%
same,"All-cause mortality at 28 days, number of death",pooled (N = 37),6
same,"All-cause mortality at 90 days, %",pooled (N = 37),27%
same,"All-cause mortality at 90 days, number of death",pooled (N = 37),10
same,"All-cause mortality at 28 days, %",[7],14%
same,"All-cause mortality at 28 days, number of death",[7],5
